We go through eleven compounds from ChEMBL document CHEMBL1201862, “PubChem BioAssay data set” (2004).

Each structure is given as a SMILES string.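 Grown in 96-well plates, cells were treated for 48 hours with each compound at five concentrations. Insufficient inhibition: endpoint recorded as highest concentration tested. The concentration for 50% growth inhibition is given as GI50.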 Active and inactive are the calls of the source. Rule as the data show it: active = GI50 up to about 1.1 µM and inactive = higher.

Some test systems named below: OVCAR-5; LOX IMVI; SNB-75; NCI-H23; A549; OVCAR-4; DMS-114; SK-MEL-2; TK-10; HCT-15; SF-295; U-251; ACHN; SK-MEL-5; EKVX; HOP-92; A498; Hs-578T; MDA-MB-435; HCC 2998.
What all share (assay): NCI tumour cell line growth inhibition, 48 h

As for `Cc1cc2c(=O)cc(-c3ccc(Cl)c(Cl)c3)oc2c(C(=O)O)c1C`, the GI50 in the assay with OVCAR-5 was > 100 µM (inactive); in the assay with LOX IMVI, > 100 µM (inactive); in the assay with SNB-75 it was 92.3 µM (inactive); in the assay on NCI-H23 it was > 100 µM (inactive); in the assay on A549, > 100 µM (inactive); in the assay with OVCAR-4, > 100 µM (inactive). Also, the GI50 is > 100 µM (inactive) in the assay on DMS-114; > 100 µM (inactive) in the assay with SK-MEL-2; > 100 µM (inactive) with TK-10; over 100 µM with HCT-15; > 100 µM (inactive) in the assay on SF-295; > 100 µM (inactive) with U-251. Moreover, the GI50 in the assay with ACHN, with SK-MEL-5 and in the assay on EKVX was > 100 µM (inactive) in each case.
In the case of `CCC1=CCC(P(=O)(c2ccccc2)c2ccccc2)CC1C` (stereo not given), the GI50 in the assay on OVCAR-5 is 65.2 µM (inactive); in the assay on HOP-92 it was 25.5 µM (inactive); in the assay with LOX IMVI, 44.3 µM (inactive); in the assay with SNB-75 it was 18.5 µM (inactive); in the assay with NCI-H23, 39.7 µM (inactive); with A549 it was 37.1 µM (inactive). Moreover, the GI50 was 35.6 µM (inactive) with OVCAR-4; 32.9 µM (inactive) in the assay with DMS-114; 29.7 µM (inactive) with SK-MEL-2; 32.6 µM (inactive) in the assay on TK-10; 34.9 µM with HCT-15; 32 µM (inactive) with SF-295. Moreover, the GI50 in the assay on U-251 was 46.1 µM (inactive); in the assay on A498 it was 38.5 µM (inactive); in the assay with SK-MEL-5 it was 28 µM (inactive); in the assay on EKVX, 35.3 µM (inactive).
For the compound `O=C(CC1(O)C(=O)Nc2ccccc21)c1cccc(O)c1` (stereo not given), the GI50 with OVCAR-5, with HOP-92, in the assay with LOX IMVI, with SNB-75, in the assay with NCI-H23 and in the assay with A549 was > 100 µM (inactive) each time. Also, the GI50 in the assay with OVCAR-4 is > 100 µM (inactive); in the assay on DMS-114 it was > 100 µM (inactive); in the assay with SK-MEL-2 it was > 100 µM (inactive); in the assay on TK-10, > 100 µM (inactive); in the assay with HCT-15, over 100 µM; in the assay with SF-295 it was > 100 µM (inactive). Also, the GI50 was > 100 µM (inactive) in the assay with ACHN, > 100 µM (inactive) in the assay on A498, 48.3 µM (inactive) in the assay on SK-MEL-5 and > 100 µM (inactive) with EKVX.
As to `CN(C)CS/C(N)=N\C(O)C(Cl)(Cl)Cl` (stereo not given), the GI50 in the assay with OVCAR-5, in the assay on HOP-92, in the assay on LOX IMVI, in the assay on SNB-75, with NCI-H23 and in the assay on A549 was > 100 µM (inactive) each time. Also, the GI50 in the assay with Hs-578T, in the assay with MDA-MB-435, with HCC 2998, in the assay with OVCAR-4, in the assay on SK-MEL-2 and with TK-10 was > 100 µM (inactive) each time. The GI50 in the assay with HCT-15 is over 100 µM; in the assay on SF-295, > 100 µM (inactive); in the assay on U-251, > 100 µM (inactive); in the assay with ACHN, > 100 µM (inactive); with A498, > 100 µM (inactive); in the assay on SK-MEL-5, > 100 µM (inactive). Further, the GI50 in the assay with EKVX was > 100 µM (inactive).
Regarding `Cc1c(C2=C(Br)C(=O)N(C)C2=O)c(=O)n(C)c(=O)n1C`, the GI50 is 61.8 µM (inactive) with OVCAR-5; 17.7 µM (inactive) with HOP-92; 17.1 µM (inactive) in the assay on LOX IMVI; > 100 µM (inactive) in the assay on SNB-75; 20.7 µM (inactive) in the assay with NCI-H23; > 100 µM (inactive) in the assay on A549. Also, the GI50 in the assay on Hs-578T is > 100 µM (inactive); in the assay on MDA-MB-435, 24.9 µM (inactive); with HCC 2998 it was 22.2 µM (inactive); with OVCAR-4, 37.7 µM (inactive); in the assay with SK-MEL-2, 16.1 µM (inactive); with TK-10 it was 17.4 µM (inactive). In addition, the GI50 is 19.4 µM in the assay with HCT-15; > 100 µM (inactive) in the assay with SF-295; 63.1 µM (inactive) with U-251; 26.7 µM (inactive) in the assay on ACHN; 29.4 µM (inactive) in the assay with A498; 22 µM (inactive) in the assay with SK-MEL-5. Also, the GI50 with EKVX is 21.6 µM (inactive).
Turning to `O=c1[nH]nc(Cc2ccc(Cl)cc2)n1/N=C\CC/C=N\n1c(Cc2ccc(Cl)cc2)n[nH]c1=O`, the GI50 in the assay on OVCAR-5 was > 100 µM (inactive); in the assay with HOP-92, > 55.5 µM (inactive); with LOX IMVI, 13.6 µM (inactive); in the assay on SNB-75 it was 7.96 µM (inactive); in the assay on NCI-H23, 32.3 µM (inactive); with A549, > 100 µM (inactive). In addition, the GI50 in the assay with Hs-578T was 11.4 µM (inactive); with MDA-MB-435, > 53.6 µM (inactive); with HCC 2998, > 100 µM (inactive); in the assay with OVCAR-4, > 81.3 µM (inactive); in the assay with SK-MEL-2, 29.8 µM (inactive); with TK-10 it was > 100 µM (inactive). For the same compound, the GI50 was 35.2 µM in the assay with HCT-15; 24.4 µM (inactive) in the assay with SF-295; 16.4 µM (inactive) in the assay on U-251; 56 µM (inactive) in the assay on ACHN; > 69.5 µM (inactive) in the assay with A498; 47.3 µM (inactive) with SK-MEL-5. The GI50 in the assay on EKVX is 21.3 µM (inactive).
On to `CC(=O)Oc1c2ccsc2c(OC(C)=O)c2ccsc12`, for which the GI50 was 2.47 µM (inactive) in the assay with OVCAR-5; 0.577 µM (active) in the assay on HOP-92; 0.184 µM (active) in the assay on LOX IMVI; 0.286 µM (active) in the assay with SNB-75; 0.269 µM (active) in the assay with NCI-H23; 0.224 µM (active) in the assay with A549. Besides, the GI50 with Hs-578T is 0.354 µM (active); with MDA-MB-435, 0.179 µM (active); in the assay on HCC 2998, 1.8 µM (inactive); in the assay on OVCAR-4, 0.67 µM (active); in the assay on SK-MEL-2, 0.138 µM (active); in the assay on TK-10, 1.97 µM (inactive). Moreover, the GI50 in the assay on HCT-15 is 0.573 µM; in the assay on SF-295, 1.07 µM (active); with U-251, 0.869 µM (active); in the assay with ACHN it was 0.667 µM (active); in the assay with A498 it was 1.77 µM (inactive); in the assay with SK-MEL-5 it was 0.167 µM (active). Moreover, the GI50 in the assay with EKVX was 1.5 µM (inactive).
With `O=c1cc(/C=C/c2ccc(O)c(O)c2)cc(/C=C/c2ccc(O)c(O)c2)o1`, the GI50 in the assay on OVCAR-5 is 12.2 µM (inactive); in the assay on HOP-92, 15.2 µM (inactive); in the assay with LOX IMVI, 15.7 µM (inactive); with SNB-75, 10.5 µM (inactive); with NCI-H23 it was 14.9 µM (inactive); in the assay with A549 it was 12.8 µM (inactive). In addition, the GI50 was 8.05 µM (inactive) in the assay on Hs-578T; 12.9 µM (inactive) with MDA-MB-435; 6.68 µM (inactive) in the assay on HCC 2998; 14.3 µM (inactive) in the assay with OVCAR-4; 11.6 µM (inactive) with SK-MEL-2; 17.5 µM (inactive) in the assay on TK-10. The GI50 was 10.4 µM in the assay with HCT-15; 9.44 µM (inactive) with SF-295; 6.95 µM (inactive) in the assay with U-251; 5.85 µM (inactive) with ACHN; 11 µM (inactive) in the assay on A498; 8.59 µM (inactive) in the assay with SK-MEL-5. Besides, the GI50 in the assay on EKVX is 8.11 µM (inactive).
With `COc1cccc2c1C(=O)c1c(O)c3c(c(O)c1C2=O)C[C@@](O)(C(=O)CO)C[C@@H]3OC1CC(N)C(OC)C(C)O1` (stereo not given in full), the GI50 in the assay with OVCAR-5 was 0.189 µM (active); in the assay on HOP-92 it was 0.0612 µM (active); in the assay with LOX IMVI, 0.0228 µM (active); with SNB-75, 0.0282 µM (active); in the assay with NCI-H23 it was 0.0605 µM (active); with A549, 0.0269 µM (active). For the same compound, the GI50 in the assay with Hs-578T is 0.138 µM (active); in the assay on MDA-MB-435, 0.267 µM (active); with HCC 2998, 0.139 µM (active); in the assay with OVCAR-4, 0.458 µM (active); in the assay on SK-MEL-2, 0.161 µM (active); with TK-10, 0.838 µM (active). For the same compound, the GI50 is 1.98 µM in the assay with HCT-15; 0.0206 µM (active) in the assay on SF-295; 0.0224 µM (active) with U-251; 0.0242 µM (active) with ACHN; 0.116 µM (active) with A498; 0.0362 µM (active) in the assay on SK-MEL-5. Besides, the GI50 with EKVX is 0.522 µM (active).
As to `CC#CC(O)(C(=O)OC1CC2CCC(C1)N2C)C1CCCC1` (stereo not given), the GI50 with OVCAR-5, with HOP-92, in the assay on LOX IMVI, with SNB-75, in the assay with NCI-H23 and in the assay on A549 was > 100 µM (inactive) each time. Further, the GI50 in the assay on Hs-578T, in the assay on MDA-MB-435, with HCC 2998, in the assay with OVCAR-4, in the assay on SK-MEL-2 and in the assay with TK-10 was > 100 µM (inactive) each time. Moreover, the GI50 in the assay with HCT-15 is over 100 µM; with SF-295, > 100 µM (inactive); with U-251, > 100 µM (inactive); in the assay with ACHN, > 100 µM (inactive); in the assay on A498 it was > 100 µM (inactive); with SK-MEL-5, > 100 µM (inactive). Also, in the assay on EKVX, the GI50 is > 100 µM (inactive).
Consider `O=C1/C=C(/c2ccc(O)cc2)[C@@H](O)Cc2ccc(O)cc2O1`, for which the GI50 was > 100 µM (inactive) in the assay with OVCAR-5; 92.3 µM (inactive) in the assay with LOX IMVI; > 100 µM (inactive) in the assay on NCI-H23; 56.1 µM (inactive) in the assay with A549; > 100 µM (inactive) in the assay on OVCAR-4; 51.3 µM (inactive) in the assay with DMS-114. Moreover, the GI50 is > 100 µM (inactive) with SK-MEL-2; > 100 µM (inactive) in the assay on TK-10; over 100 µM with HCT-15; 93.1 µM (inactive) in the assay on SF-295; > 100 µM (inactive) in the assay with U-251; 92.7 µM (inactive) in the assay on ACHN. The GI50 is 2.25 µM (inactive) in the assay on A498, > 100 µM (inactive) with SK-MEL-5 and > 100 µM (inactive) with EKVX.
